Laboratory results reported in ChEMBL document CHEMBL4371032, “Synthesis and evaluation of 2,5-diamino and 2,5-dianilinomethyl pyridine analogues as potential CXCR4 antagonists” (2019).
Activity calls are given as the source filed them. The calls are words filed in the database; no cut-off is given here.

Experiments:
Mus musculus = experiment: Antiinflammatory activity in C57Bl/6J mouse assessed as inhibition of carrageenan-induced paw edema at 10 mg/kg, ip treated for 2 days measured 2 hrs post last dose by caliper method relative to control; type: functional
[1] = target: C-X-C chemokine receptor type 4 (Homo sapiens) (UniProt P61073); experiment: Inhibition of biotinylated TN14003 binding to CXCR4 in human MDA-MB-231 cells preincubated for 10 mins followed by biotinylated-TN14003 addition measured after 30 mins by streptavidin-rhodamine staining based fluorescence microscopic analysis; type: cell-based
Sequence of C-X-C chemokine receptor type 4 (Homo sapiens) (P61073 whole entry): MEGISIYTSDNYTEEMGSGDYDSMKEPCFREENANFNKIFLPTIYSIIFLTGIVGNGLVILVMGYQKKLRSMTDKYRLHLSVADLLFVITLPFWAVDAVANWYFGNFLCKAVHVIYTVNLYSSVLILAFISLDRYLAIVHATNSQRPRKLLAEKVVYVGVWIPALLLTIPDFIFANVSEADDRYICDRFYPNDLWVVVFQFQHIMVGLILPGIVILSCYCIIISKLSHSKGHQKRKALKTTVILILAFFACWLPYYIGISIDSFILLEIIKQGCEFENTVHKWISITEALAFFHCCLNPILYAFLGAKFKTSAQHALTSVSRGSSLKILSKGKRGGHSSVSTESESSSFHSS

[2] = target: C-X-C chemokine receptor type 4 (Homo sapiens) (UniProt P61073); experiment: Inhibition of CXCR4-mediated chemotaxis in human MDA-MB-231 cells assessed as reduction in CXCL12alpha-induced cell invasion at 100 nM after 22 hrs by hematoxylin/eosin dye-based matrigel assay relative to control

| SMILES | inhibition in vivo at 10 mg/kg (Mus musculus) [%] | EC [1] [nM] | inhibition [2] [%] | inhibition (Mus musculus) |
| --- | --- | --- | --- | --- |
| O=[N+]([O-])c1ccc(NCc2ccc(CNc3ccc([N+](=O)[O-])cc3)nc2)cc1 | 13 | 1 | 80.3 |  |
| COc1cccc(CNc2ccc(NCc3cccc(OC)c3)nc2)c1 |  | > 1000 |  |  |
| CCc1ccc(NCc2ccc(CNc3ccc(CC)cc3)nc2)cc1 |  | 1000 |  |  |
| Brc1ccc(CNc2ccc(NCc3ccc(Br)cc3)nc2)cc1 |  | 1000 |  |  |
| O=[N+]([O-])c1ccccc1NCc1ccc(CNc2ccccc2[N+](=O)[O-])nc1 |  | 1000 |  |  |
| c1cc(CN2CCCNCCNCCCNCC2)ccc1CN1CCCNCCNCCCNCC1 |  |  | 62 | inactive |
| Clc1ccc(NCc2ccc(CNc3ccc(Cl)cc3)nc2)cc1 |  | 1000 |  |  |
| Fc1cccc(CNc2ccc(NCc3cccc(F)c3)nc2)c1 |  | 100 | 4.8 |  |
| Brc1ccc(NCc2ccc(CNc3ccc(Br)cc3)nc2)cc1 |  | 1000 |  |  |
| Fc1cccc(NCc2ccc(CNc3cccc(F)c3)nc2)c1 | 12 | 100 | 82.4 |  |
| O=[N+]([O-])c1cccc(CNc2ccc(NCc3cccc([N+](=O)[O-])c3)nc2)c1 |  | 1000 |  |  |
| Clc1ccc(CNc2ccc(NCc3ccc(Cl)cc3)nc2)cc1 | 8 | 10 | 83.7 |  |
| CCc1ccc(CNc2ccc(NCc3ccc(CC)cc3)nc2)cc1 |  | > 1000 |  |  |
| O=[N+]([O-])c1ccccc1CNc1ccc(NCc2ccccc2[N+](=O)[O-])nc1 |  | 1000 |  |  |
| O=[N+]([O-])c1ccc(CNc2ccc(NCc3ccc([N+](=O)[O-])cc3)nc2)cc1 |  | 1000 |  |  |
| Fc1ccccc1CNc1ccc(NCc2ccccc2F)nc1 |  | 100 | 53.3 |  |
| COc1ccccc1CNc1ccc(NCc2ccccc2OC)nc1 |  | > 1000 |  |  |

| SMILES | inhibition in vivo at 10 mg/kg (Mus musculus) [%] | EC [1] [nM] | inhibition [2] [%] | inhibition (Mus musculus) |
| --- | --- | --- | --- | --- |
| COc1ccc(NCc2ccc(CNc3ccc(OC)cc3)nc2)cc1 |  | 1000 |  |  |
| Fc1ccccc1NCc1ccc(CNc2ccccc2F)nc1 |  | 1000 |  |  |
| COc1ccccc1NCc1ccc(CNc2ccccc2OC)nc1 | 11 |  | 84.1 |  |
| Cc1ccccc1CNc1ccc(NCc2ccccc2C)nc1 | 3 | 100 | 82.4 |  |
| Fc1ccc(CNc2ccc(NCc3ccc(F)cc3)nc2)cc1 |  | 1000 |  |  |
| COc1cccc(NCc2ccc(CNc3cccc(OC)c3)nc2)c1 |  | 100 | 76.8 | inactive |
| Fc1ccc(NCc2ccc(CNc3ccc(F)cc3)nc2)cc1 |  | 1000 |  |  |
| O=[N+]([O-])c1cccc(NCc2ccc(CNc3cccc([N+](=O)[O-])c3)nc2)c1 |  | 100 | 73.4 |  |
| Cc1cccc(NCc2ccc(CNc3cccc(C)c3)nc2)c1 |  |  | 99 | inactive |
| Cc1ccc(CNc2ccc(NCc3ccc(C)cc3)nc2)cc1 |  | 10 | 35.7 |  |
| c1ccc(CNc2ccc(NCc3ccccc3)nc2)cc1 |  | 1000 |  |  |
| COc1ccccc1NCc1cccc(CNc2ccccc2OC)n1 |  |  | < 1 |  |
| Cc1cccc(CNc2ccc(NCc3cccc(C)c3)nc2)c1 |  | 100 | 50.4 |  |
| c1ccc(NCc2ccc(CNc3ccccc3)nc2)cc1 |  | 1000 |  |  |
| Cc1ccc(NCc2ccc(CNc3ccc(C)cc3)nc2)cc1 |  | 100 | 85.1 | inactive |
| Cc1ccccc1NCc1ccc(CNc2ccccc2C)nc1 |  | 1000 |  |  |
| c1ccc(NCc2ccc(CNc3ccccn3)cc2)nc1 | 40 |  |  |  |
